Assays:
[1] = tested on: a variety of test species; experiment: Post-emergence herbicidal activity (glasshouse, sprayed after 8 days cultivation, evaluated after 13 days); type: in vivo; set-up: key: 5=total damage to plant; 0=no damage to plant; conditions: rate 1000 g/Ha, scale 0-5
Outline: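 Pot-grown plants, 8 days after sowing, were sprayed with compound formulated in acetone/water (50:50) with 0.5% Tween 20. Glasshouse conditions 24/16° C day/night, 14 h light, 65% humidity; damage scored after 13 days on a 0 (none) to 5 (total) scale.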

[2] = tested on: a variety of test species; experiment: Pre-emergence herbicidal activity (glasshouse, sprayed one day after sowing, evaluated after 13 days); type: in vivo; set-up: key: 5=total damage to plant; 0=no damage to plant; conditions: application pre-emergence, rate 1000 g/Ha, scale 0-5
Outline: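 Seeds sown in standard soil in pots, held one day in glasshouse (24/16 °C day/night, 14 h light, 65% humidity), then sprayed with aqueous solution of compound formulated in acetone/water 50:50 with 0.5% Tween 20. Grown on under same conditions, watered twice daily; damage scored after 13 days (0 = none, 5 = total).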

| SMILES | ABUTH (Abutilon theophrasti) damage score, application post-emergence [1] | ALOMY (Alopecurus myosuroides) damage score, application post-emergence [1] | AMARE (Amaranthus retroflexus) damage score, application post-emergence [1] | ECHCG (Echinochloa crus-galli) damage score, application post-emergence [1] | SETFA (Setaria faberi) damage score, application post-emergence [1] | ZEAMX (Zea mays) damage score, application post-emergence [1] | Pre-emergence herbicidal damage score, ABUTH [2] | Pre-emergence herbicidal damage score, ALOMY [2] | Pre-emergence herbicidal damage score, AMARE [2] | Pre-emergence herbicidal damage score, ECHCG [2] | Pre-emergence herbicidal damage score, SETFA [2] | Pre-emergence herbicidal damage score, ZEAMX [2] | melting point [°C] |
| --- | --- | --- | --- | --- | --- | --- | --- | --- | --- | --- | --- | --- | --- |
| COC1=C(C)C(O)N(c2noc(C(C)C)c2C#N)C1=O (stereo not shown) [D3] | 5 | 5 | 5 | 5 | 5 | 4 | 4 | 3 | 5 | 5 | 5 | 2 | 99 to 101 |
| COC1=C(C)C(O)N(c2cc(C(C)(C)C#N)on2)C1=O (stereo not shown) [D4] | 5 | 5 | 5 | 5 | 5 | 5 | 5 | 4 | 5 | 5 | 5 | 3 | 123 to 125 |
| CCC(C)(C)c1onc(N2C(=O)C(OC)=C(C)C2O)c1C#N (stereo not shown) [D5] | 5 | 5 | 5 | 5 | 5 | 5 | 5 | 4 | 5 | 5 | 5 | 2 | 79 to 81 |
| CCOC1=C(C)C(O)N(c2cc(C(C)(C)C#N)on2)C1=O (stereo not shown) [D6] | 5 | 4 | 5 | 5 | 5 | 2 | 5 | 4 | 5 | 5 | 4 | 3 | 90 to 92 |
| COC1=C(C)C(OC(C)=O)N(c2cc(C(C)(C)C)on2)C1=O (stereo not shown) [D7] | 5 | 4 | 5 | 5 | 5 | 3 | 5 | 3 | 5 | 4 | 5 | 2 | 118 to 124 |
| CCOC1=C(C)CN(c2cc(C(C)(C)C#N)on2)C1=O [D8] | 4 | 3 | 5 | 4 | 3 | 0 | 3 | 2 | 4 | 3 | 4 | 2 | 127 to 129 |
| COC1=C(C)CN(c2noc(C(C)C)c2C#N)C1=O [D10] | 4 | 5 | 5 | 5 | 5 | 2 | 4 | 3 | 5 | 5 | 5 | 2 | 131 to 133 |
| COC1=C(C)CN(c2noc(C(C)(C)C)c2C#N)C1=O [D11, 5-tert-butyl-3-(4-methoxy-3-methyl-5-oxo-2H-pyrrol-1-yl)isoxazole-4-carbonitrile] | 5 | 5 | 5 | 5 | 5 | 4 | 4 | 4 | 5 | 5 | 5 | 3 | 138 to 140 |
| COC1=C(C)CN(c2cc(C(C)(C)C#N)on2)C1=O [D12] | 4 | 4 | 5 | 5 | 5 | 2 | 5 | 4 | 5 | 5 | 4 | 2 | 103 to 105 |
| CCC(C)(C)c1onc(N2CC(C)=C(OC)C2=O)c1C#N [D13] | 4 | 5 | 5 | 5 | 5 | 2 | 2 | 2 | 5 | 4 | 2 | 2 | 72 to 74 |
| COC1=C(Cl)C(O)N(c2cc(C(C)(C)C)on2)C1=O (stereo not shown) [E1, 1-(5-tert-butylisoxazol-3-yl)-3-chloro-2-hydroxy-4-methoxy-2H-pyrol-5-one] | 5 | 3 | 5 | 5 | 5 | 0 | 4 | 2 | 5 | 3 | 3 | 2 | 123 to 133 |
| COC1=C(Cl)C(OC(C)=O)N(c2cc(C(C)(C)C)on2)C1=O (stereo not shown) [E2, [1-(5-tert-butylisoxazol-3-yl)-3-chloro-4-methoxy-5-oxo-2H-pyrrol-2-yl]acetate] | 5 | 3 | 5 | 5 | 5 | 0 | 5 | 3 | 5 | 4 | 3 | 1 | 101 to 107 |
| COC1=C(Cl)CN(c2cc(C(C)(C)C)on2)C1=O [E3] | 1 | 0 | 2 | 2 | 4 | 0 | 2 | 1 | 5 | 3 | 3 | 1 | 94 to 106 |
